Experimental data published in US6541513B2, “Carbamate compounds for use in preventing or treating psychotic disorders” (Ortho-McNeil Pharmaceutical, Inc., priority 2001, dated 2003).

Legend:
[1] = tested on: DOI-induced headshakes in male NIH Swiss mice; experiment: DOI-Induced Headshake Model; assay type: in vivo; conditions: for % Inhibition (% Inh.) of DOI-induced headshakes: 45 min before DOI 5 mg/kg ip, percent suppression compared to vehicle group; for maximal suppression of DOI-induced headshakes: at the 100 mg/kg dose, oral, DOI 5 mg/kg ip
Procedure: DOI-Induced Headshake Model
The administration of DOI to rodents has been used as a model for assessing potential efficacy of an atypical antipsychotic in treating psychosis and schizophrenia in certain patient populations with direct or indirect defects in the serotonin system.
Male NIH Swiss mice weighing 18-21 grams at the time of purchase were obtained from Harlan Sprague Dawley, Inc. (Prattville, Ala.). They were individually housed in wire-mesh cages at an ambient temperature of 21 to 23° C. with an automated 12/12 hour light/dark cycle. All […] had free access to 5001 Rodent Chow (Purina Mills, Brentwood, Mo.) and water except during experimental sessions. The principles of laboratory animal care (NIH publication No. 85-23, revised 1985) were followed.
DOI (purchased from Sigma, St. Louis, Mo.) was dissolved in saline, neutralized to pH ˜7.4 and injected ip in a volume of 10 ml/kg body weight. Injection solution was freshly prepared 30-45 minutes before each experiment. Methylcellulose (0.5%, Sigma) was used as oral dosing vehicle. All experiments were performed between 10 am and 4 pm during the day. The mice were fasted the evening before the experiment.
An enantiomer of Formula (Ib), Formula (IIb) or vehicle was orally administered at various concentrations ranging from 10 μg to 100 mg/kg. The animals were then injected with either saline or DOI (ip, 5 mg/kg) 45 minutes after the administration of either vehicle or an enantiomer of Formula (Ib) or Formula (IIb). Immediately upon DOI administration, the mice were placed in isolated observation cylinders made of a clear polycarbonate (27 cm in diameter and 55 cm deep). The number of randomized headshakes (or twitches) was recorded by an experienced observer using a hand held mechanical counter. Headshake responses were counted in consecutive 10-min periods.
DOI-Induced Headshake Model Analysis
All data are expressed as the mean ±SEM. The average of the headshakes in the vehicle group was expressed as 100%. The DOI-induced headshakes in groups treated with an enantiomer of Formula (Ib) and Formula (IIb) were expressed as percent suppression compared to the vehicle group. Statistical analysis for significant differences was done with the Student t test.

[2] = tested on: PPI-disruptive effects of PCP in Sprague-Dawley-derived male rats; experiment: Pre-Pulse Inhibition Model (PCP-disrupted PPI); assay type: in vivo
Source text: Pre-Pulse Inhibition Model
The restorative effect of an enantiomer of Formula (Ib) on Pre-Pulse Inhibition (PPI) was compared to the disruptive PPI effect of phencyclidine (PCP). PCP is a NMDA antagonist having a wide range of psychotominetic effects in humans. The PPI disruption caused by PCP can be restored by some atypical antipsychotics, such as clozapine, olanzapine, and quetiapine.
Sprague-Dawley-derived male rats were housed in groups of two or three and maintained in a temperature-controlled environment on a 12 h:12 h light cycle. Except during behavioral testing, animals were given free access to food and water. Animals were handled daily for several days to desensitize them to handling stress before behavioral analysis.
An SR-LAB Startle System was used to control auditory stimuli and background noise level and to monitor startle response (±one msec). The average amplitude of the response was the main dependent variable used. Animals (n=20) were grouped according to a baseline mean PPI determined in a brief matching session. Baseline mean PPI testing consisted of 12 noise bursts at 118 dB[A] over a 40 msec time period followed by 3 noise bursts at 12 dB[A] over a 40 msec time period two days before testing with drug. […]
Data were collected online simultaneously from multiple startle chambers and analyzed using the Statview 5.0 statistical package.

Compound	% Inhibition (% Inh.) of DOI-induced headshakes ([1]; 0.01 mg/Kg oral)	% Inhibition (% Inh.) of DOI-induced headshakes ([1]; 0.1 mg/Kg oral)	% Inhibition (% Inh.) of DOI-induced headshakes ([1]; 1 mg/Kg oral)	% Inhibition (% Inh.) of DOI-induced headshakes ([1]; 10 mg/Kg oral)	% Inhibition (% Inh.) of DOI-induced headshakes ([1]; 30 mg/Kg oral)	% Inhibition (% Inh.) of DOI-induced headshakes ([1]; 100 mg/Kg oral)	maximal suppression of DOI-induced headshakes [1]	dose-dependent reduction in startle magnitude ([2]; 5, 15 and 45 mg/kg p.o.)	block of the PPI-disruptive effects of PCP ([2]; acute treatment 5, 15 and 45 mg/kg p.o., 110 min before PCP 1.5 mg/kg s.c.)
NC(=O)OC[C@@H](O)c1ccccc1Cl [Formula (Ib)]	11%	20%	41%	63%	58%	76%	76%	lacked an orderly dose-dependent reduction in startle magnitude	failed to significantly block the PPI-disruptive effects of PCP
NC(=O)OC[C@H](OC(N)=O)c1ccccc1Cl [Formula (IIb)]	1%	11%	4%	41%	36%	43%	43%	–	–
